Test results published in patent publication US20160051542A1 (CHANRX CORPORATION, priority 2013, published 2016).

Experiments:
[1] = Daily dosing for 11 consecutive days, PK and hemodynamics (Example 2); assay type: in vivo, human
[2] = human, in vivo
Source text: Furthermore, steady state plasma levels are achieved within 3 days of oral dosing in some studies and up to 14 days in other studies. In human studies, the typical time is between about 3-11 days for reaching steady state status. […] This provides for an opportunity to achieve steady state plasma levels for restoration or maintenance of normal sinus rhythm in mammals.

[3] = Daily dosing for 7 days in four patients (Example 4); assay type: in vivo, human; settings: 50, 100 and 150 mg daily, all patients
[4] = Adverse events in the single dose AF/AFL study (Example 1); assay type: in vivo, human
Source text: (§1) The vanoxerine or identical appearing placebo was randomly assigned and administered in a double-blinded fashion.

[5] = Daily dosing for 14 days in healthy patients (Example 3); assay type: in vivo, human; settings: 25, 75 and 125 mg daily for 14 days, meal 15 minutes prior to dosing
Description: A standardized meal was served 15 minutes prior to each dosing.

[6] = Preliminary studies of daily use over 7, 10 and 14 days; assay type: in vivo; settings: 75, 100, 125 and 150 mg a day over 7, 10 and 14 days
Source text: However, control and prevention of events of cardiac arrhythmia are important to these patients to prevent future re-occurrences and the deleterious effects and morbidity.

[7] = tested on: recent onset symptomatic AF/AFL; experiment: Randomised double-blind single oral dose study: conversion of recent onset symptomatic AF/AFL to sinus rhythm (Example 1); assay type: in vivo, human; settings: for Conversion of Atrial Flutter, %: pure atrial flutter subjects (N 4), any time within 24 hours
Description: as §1
Inclusion criteria included: male or female over the age of […], symptomatic AF/AFL for more than 3 hours and less than 7 days, as dated by symptoms, and adherence to local clinical standards or the […] practice guidelines for AF/AFL regarding thromboembolic event prevention and treatment
Exclusion Criteria Included: • (a) Systolic blood pressure <100 mmHG, HR <50 bpm • (b) Average QTcF >440 ms, […] >140 ms • (c) Paced atrial or ventricular rhythm • (d) Serum potassium <3.5 meq/L • (e) History of receiving another Class 1 or Class III antiarrhythmic drug within 3 days of randomization, amiodarone (oral or IV) within 3 months • (f) Acute coronary syndrome within 30 days prior to randomization • (g) Aortic stenosis with AVA ≦1.0 cm^2 • (h) Mitral stenosis with MVA of <1.5 cm^2 • (i) Acute pulmonary edema/embolism • (j) Stroke within 30 days or TIA within 48 hours • (k) Untreated hyperthyroidism • (l) Acute pericarditis • (m) Postoperative AF/AFL within 7 days • (n) History of failed Direct current cardioversion • (o) History of polymorphic ventricular tachycardia (e.g. Torsade de Pointes) • (p) History or family history of long QT syndrome • (q) History of ventricular tachycardia requiring drug or device therapy • (r) History of NYHA Heart Failure Class III or IV or recent (within 1 month) onset of heart failure not related to rapid ventricular response AF • (s) Ejection fraction of 35% or less • (t) History of prior ablation therapy for cardiac arrhythmias
4-Hour Efficacy Endpoints: • (a) the proportion of subjects who convert to sinus rhythm for at least 1 minute through 4 hours after start of study drug. • (b) the proportion of subjects in sinus rhythm at 4 hours after start of study drug • (c) time to restoration of sinus rhythm within 4 hours
24-Hour Efficacy Endpoints • (a) the proportion of subjects who convert to sinus rhythm for at least 1 minute through 24 hours after start of study drug. • (b) the proportion of subjects in sinus rhythm at 24 hours after start of study drug • (c) time to restoration of sinus rhythm within 24 hours
Statistical Considerations: • (a) Placebo subjects in all dose cohorts pooled to create one placebo dose group for comparison to the active dose groups • (b) each dose group compared separately with placebo • (c) Fisher's exact tests for difference in proportions between each dose level and placebo • (d) Time to restoration tested using the Kaplan-Meier method with difference in survivor functions; Log-Rank test used to compare each dose level with placebo • (e) No correction for multiple comparisons among dose groups.

Plasma levels ([1]; 25 mg daily): not detectable after 8 hours
PK linearity ([1]; 50, 75 and 100 mg doses): linear and dose proportional
Plasma levels ([1]; 50, 75 and 100 mg doses): detectable at 24 hours
Time at which steady state was reached ([1]; 50, 75 and 100 mg doses): ≤ 8 days
Time for reaching steady state status [2]: 3 to 11 days
Time to steady state levels [3]: within one week
Compound: Fc1ccc(C(OCCN2CCN(CCCc3ccccc3)CC2)c2ccc(F)cc2)cc1 [vanoxerine, 1-[2-[bis(4-fluorophenyl)methoxy]ethyl]-4-(3-phenylpropyl)piperazine]
Heart rate and systolic blood pressure ([1]; 75 and 100 mg doses): increased slightly in most subjects
Number of adverse events reported ([4]; 200 mg): 8 AEs
Subjects reporting adverse events, N (%) ([4]; 200 mg (22 subjects)): 4 (18%) subjects
Number of adverse events reported ([4]; 300 mg): 12 AEs
Subjects reporting adverse events, N (%) ([4]; 300 mg (25 subjects)): 7 (28%) subjects
Number of adverse events reported ([4]; 400 mg): 23 AEs
Subjects reporting adverse events, N (%) ([4]; 400 mg (25 subjects)): 10 (40%) subjects
Tolerability ([4]; 200, 300 and 400 mg single doses): well tolerated at all doses
1:1 AFL post dose ([4]; all doses): No 1:1 AFL seen post dose in any subject
Serious adverse events, all doses ([4]; all doses, neither related to the study drug): two
Proarrhythmia ([4]; single doses 200-400 mg): absence of proarrhythmia
Adverse events [5]: No significant adverse events
Heart rate and systolic blood pressure [6]: may lead to increased heart rate and systolic blood pressure
Percent conversion to sinus rhythm ([7]; 200 mg single dose, 0-4 hr): 18%
Percent conversion to sinus rhythm ([7]; 200 mg single dose, 0-8 hr): 45%
Percent conversion to sinus rhythm ([7]; 200 mg single dose, 0-24 hr): 59%
Conversion of Atrial Flutter, % ([7]; 200 mg): 50%
Percent conversion to sinus rhythm ([7]; 300 mg single dose, 0-4 hr): 40%
Percent conversion to sinus rhythm ([7]; 300 mg single dose, 0-8 hr): 52%
Percent conversion to sinus rhythm ([7]; 300 mg single dose, 0-24 hr): 64%
Conversion of Atrial Flutter, % ([7]; 300 mg): 75%
Percent conversion to sinus rhythm ([7]; 400 mg single dose, 0-4 hr): 52%
Percent conversion to sinus rhythm ([7]; 400 mg single dose, 0-8 hr): 76%
Percent conversion to sinus rhythm ([7]; 400 mg single dose, 0-24 hr): 84%
Conversion of Atrial Flutter, % ([7]; 400 mg): 75%
Conversion to sinus rhythm ([7]; all doses of vanoxerine, at about 7 hours): greater than 40%
Conversion to sinus rhythm ([7]; all doses, at 12 hours): greater than 50%
Conversion to sinus rhythm ([7]; all doses, at about 16 hours): ~60%
